Literature values, collected in patent publication US20250325558A1, “MODULATION OF BACE1 AS A THERAPY FOR SPINOCEREBELLAR ATAXIA” (The General Hospital Corporation, priority 2022, published 2025).

Details: preclinical and clinical studies

For `CN1C(=N)N[C@](C)(c2cc(NC(=O)c3ccc(F)cn3)ccc2F)CS1(=O)=O` [MK-8931, verubecestat], the “serious adverse side effects such as liver toxicity” value is given as “did not produce any serious adverse side effects such as liver toxicity”.
